In ChEMBL document CHEMBL3875228, “Rational Design of a Boron-Modified Triphenylethylene (GLL398) as an Oral Selective Estrogen Receptor Downregulator” (ACS Med Chem Lett, 2017):

How the values were obtained:
[1] = Tmax in Sprague-Dawley rat at 10 mg/kg, po administered via gavage measured at 1 to 24 hrs post administration by HPLC-MS/MS analysis; format: ADME, organism-based; details: in vivo
[2] = Half life in Sprague-Dawley rat at 10 mg/kg, po administered via gavage measured at 1 to 24 hrs post administration by HPLC-MS/MS analysis; format: ADME, organism-based; details: in vivo
[3] = Cmax in Sprague-Dawley rat at 10 mg/kg, po administered via gavage measured at 1 to 24 hrs post administration by HPLC-MS/MS analysis; format: ADME, organism-based; set-up: dose 10 mg/kg, route oral; details: in vivo
[4] = Half life in Sprague-Dawley rat assessed as GW7604 at 10 mg/kg, po administered via gavage measured at 1 to 24 hrs post administration by HPLC-MS/MS analysis; format: ADME, organism-based; details: in vivo
[5] = AUC in Sprague-Dawley rat at 10 mg/kg, po administered via gavage measured at 1 to 24 hrs post administration by HPLC-MS/MS analysis; format: ADME, organism-based; details: in vivo
[6] = Cmax in Sprague-Dawley rat assessed as GW7604 at 10 mg/kg, po administered via gavage measured at 1 to 24 hrs post administration by HPLC-MS/MS analysis; format: ADME, organism-based; set-up: dose 10 mg/kg, route oral; details: in vivo
[7] = AUC in Sprague-Dawley rat assessed as GW7604 at 10 mg/kg, po administered via gavage measured at 1 to 24 hrs post administration by HPLC-MS/MS analysis; format: ADME, organism-based; details: in vivo
[8] = cells; details: Homo sapiens, MCF7, 120 h
Description: Cytotoxicity against human MCF7 cells assessed as reduction in cell viability after 5 days by Coulter counting method

[9] = cells; details: Homo sapiens, MCF7, 120 h; remark: listed apart in the source
Description: Cytotoxicity against tamoxifen-resistant human MCF7 cells assessed as reduction in cell viability after 5 days by Coulter counting method

[10] = biological target: T1, Estrogen receptor (Homo sapiens, UniProt P03372); assay: Downregulation of ERalpha in human MCF7 cells after 4 hrs by Western blot analysis; format: cell-based
T1 sequence (P03372 whole entry): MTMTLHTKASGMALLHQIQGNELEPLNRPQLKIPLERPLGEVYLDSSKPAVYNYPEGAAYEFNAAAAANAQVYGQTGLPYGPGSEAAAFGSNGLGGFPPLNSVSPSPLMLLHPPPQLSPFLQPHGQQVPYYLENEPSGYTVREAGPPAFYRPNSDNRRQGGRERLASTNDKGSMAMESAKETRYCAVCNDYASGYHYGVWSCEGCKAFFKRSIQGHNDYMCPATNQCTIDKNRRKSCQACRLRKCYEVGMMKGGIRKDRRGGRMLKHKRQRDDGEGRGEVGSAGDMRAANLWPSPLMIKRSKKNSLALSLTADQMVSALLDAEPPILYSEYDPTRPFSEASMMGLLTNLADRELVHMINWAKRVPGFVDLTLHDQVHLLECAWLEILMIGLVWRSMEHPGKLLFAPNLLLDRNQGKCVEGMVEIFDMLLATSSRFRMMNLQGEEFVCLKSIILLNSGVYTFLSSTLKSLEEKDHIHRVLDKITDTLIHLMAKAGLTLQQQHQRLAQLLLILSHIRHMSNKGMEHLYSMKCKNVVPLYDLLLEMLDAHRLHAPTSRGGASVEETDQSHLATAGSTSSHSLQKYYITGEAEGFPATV

[11] = biological target: T1, Estrogen receptor; assay: biochemical
Description: Displacement of fluormone-labeled ES2 from recombinant full length human ERalpha ligand binding domain expressed in insect cells after 2 hrs by TR-FRET assay

| SMILES | Tmax [1] [h] | half-life [2] [h] | Cmax [3] [ng/mL] | t1/2 [4] [h] | AUC [5] [ng·h/mL] | Cmax [6] [ng/mL] | AUC [7] [ng·h/mL] | IC50 [8] [nM] | IC50 [9] [nM] | IC50 [10] [nM] | IC50 [11] [nM] |
| --- | --- | --- | --- | --- | --- | --- | --- | --- | --- | --- | --- |
| CC/C(=C(\c1ccccc1)c1ccc(/C=C/C(=O)O)cc1)c1ccc(O)cc1 | 3 | 7 | 270 | 4.5 | 3350 | 560 | 8670 | 1900 | 1000 |  |  |
| CCC(=C(c1ccc(/C=C/C(=O)O)cc1)c1ccc(B(O)O)cc1)c1ccccc1 | 1 | 3.9 | 3510 |  | 36900 |  |  | 1800 | 1200 | 210 | 1.14 |
| CC/C(=C(\c1ccc(O)cc1)c1ccc(OCCN(C)C)cc1)c1ccccc1 [AFIMOXIFENE] |  |  |  |  |  |  |  | 3.4 | 20000 |  |  |
